Assay results: patent US20230046947A1, “REACTIVE CONJUGATES” (Debiopharm Research & Manufacturing S.A., priority 2019, published 2023)
Where a SMILES comes first, the peptide text is derived from it. Bridges are numbered along the chain shown (N, C = ends). Where no end group is shown, it is not given here. [ ]: non-standard residue; d: D form. PEG20 = NCCOCCOCCOCCOCCOCCOCCOCCOCCOCCOCCOCCOCCOCCOCCOCCOCCOCCOCCOCCOCCC(=O)O

Target: T1, Fc region of trastuzumab (Homo sapiens, UniProt P01857)
T1 construct: made in house; host or cells: recombinant CHO cell lines
Assay: Competitive FP binding assay against Fc-III-FAM
Settings: for binding to the Fc region of trastuzumab (in words): competitive FP against Fc-III-FAM
Procedure: The competitive FP measurements were performed on SpectraMax Paradigm Multi-Mode Detection Platform (Molecular Devices) in flat-bottom 384-well Corning microplates (Merck KGaA), using excitation and emission wavelengths of 485 nm and 535 nm, respectively. The acquisition time was 700 milliseconds and the read height was 1 mm. All reagents used in the assay were diluted in PBS containing 0.05% Tween 20.
The mixture was incubated at 27° C. for 15 min and the fluorescence signal was red on a Spectramax Paradigm. All sample preparations were done in PBS pH 7.4 or 7.0 containing 0.05% Tween. Each experiment was performed in triplicate.

Row | Molecule | IC50 [µM] | binding to the Fc region of trastuzumab (in words)
1 | CC(C)C[C@@H]1NC(=O)[C@H](Cc2c[nH]cn2)NC(=O)[C@H](Cc2c[nH]c3ccccc23)NC(=O)[C@H](C)NC(=O)[C@@H](NC(=O)[C@@H](N)CC(=O)O)CSSC[C@@H](C(=O)N[C@H](C(N)=O)[C@@H](C)O)NC(=O)[C@H](C)NC(=O)[C@H](Cc2c[nH]c3ccccc23)NC(=O)[C@H](CC(C)C)NC(=O)[C@H](CCC(=O)O)NC(=O)CNC1=O [Compound 13] (H-DCAWHLGELWACT-NH2; disulfide 2-12 (inferred)) | 36.5 ± 15.6 | –
2 | NH2—(PEG)20—CH2CH2—CO—DCAWHLGELWACT—NH2 ([PEG20]DCAWHLGELWACT-NH2; disulfide 3-13 (inferred)) [Compound 15] | – | impaired peptide binding
3 | CC(C)C[C@@H]1NC(=O)[C@H](Cc2c[nH]cn2)NC(=O)[C@H](Cc2c[nH]c3ccccc23)NC(=O)[C@H](C)NC(=O)[C@@H](NC(=O)[C@H](CC(=O)O)NC(=O)[C@@H]2CCCN2C(=O)[C@@H]2CCCN2C(=O)[C@@H]2CCCN2C(=O)[C@@H]2CCCN2C(=O)[C@@H]2CCCN2C(=O)[C@@H]2CCCN2C(=O)CNC(=O)CNC(=O)[C@@H](N)CO)CSSC[C@@H](C(=O)N[C@H](C(N)=O)[C@@H](C)O)NC(=O)[C@H](Cc2c[nH]c3ccccc23)NC(=O)[C@H](C(C)C)NC(=O)[C@H](CC(C)C)NC(=O)[C@H](CCC(=O)O)NC(=O)CNC1=O [Compound 2] (H-SGGPPPPPPDCAWHLGELVWCT-NH2; disulfide 11-21 (inferred)) | 0.061 ± 0.033 | high affinity
4 | CC(C)C[C@H](NC(=O)[C@H](Cc1c[nH]cn1)NC(=O)[C@H](Cc1c[nH]c2ccccc12)NC(=O)[C@H](C)NC(=O)[C@H](C)NC(=O)[C@H](CC(=O)O)NC(=O)CCOCCOCCOCCOCCOCCOCCOCCOCCOCCOCCOCCOCCOCCOCCOCCOCCOCCOCCOCCOCCN)C(=O)NCC(=O)N[C@@H](CCC(=O)O)C(=O)N[C@@H](CC(C)C)C(=O)N[C@H](C(=O)N[C@@H](Cc1c[nH]c2ccccc12)C(=O)N[C@@H](C)C(=O)N[C@H](C(N)=O)[C@@H](C)O)C(C)C [Compound 16] (H-[PEG20]DAAWHLGELVWAT-NH2) | 10.7 ± 11.9 | impaired peptide binding
